Test results from patent US11814652B2, “Pluripotent stem cell differentiation-promoting agent” (Oriental Yeast Co., Ltd., priority 2018, dated 2023).

How the values were obtained:
[1] = system: iPS cells 201B7 strain; assay: Cell number during ectodermal differentiation-induction in medium with β-NMN (Example 2); type: cell-based, human; settings: ectoderm differentiation-inducing medium containing β-NMN 0.1, 0.25 or 1 mM; 2nd, 4th, 7th day after seeding; versus medium not containing β-NMN
Protocol: The effect of β-NMN on the ectodermal differentiation-induction of the iPS cells was examined. The 201B7 strain was used as the iPS cells. The iPS cells were seeded in a 12-well plate coated with Matrigel (manufactured by Corning Incorporated) according to the manufacturer's protocol at 8×10^5 cells/well. The cells in the 12-well plate were cultured in a culture medium prepared by adjusting an ectodermal differentiation-inducing culture medium of “STEMdiff Trilineage Differentiation kit” (manufactured by STEMCELL Technologies) to have a final concentration of β-NMN of 0, 0.1, 0.25, or 1 mM, and a final concentration of Rock inhibitor of 10 μM for 1 day. From the 1st day after seeding, the medium was replaced every day with a culture medium obtained by removing the Rock inhibitor from the culture medium at the time of seeding. Cells of the 2nd, 4th or 7th day after seeding were sampled and the cell numbers were counted. The time-dependent change in cell number of each sample is shown in FIG. 2(A), and the cell numbers of the 7th day after seeding are shown in FIG. 2(B). As a result, the number of cells cultured in the ectoderm differentiation-inducing culture medium containing β-NMN was larger than the number of cells cultured in the medium not containing β-NMN.

[2] = system: iPS cells 253G1 strain; assay: Flow cytometry of Sox17/CXCR4 endodermal markers, differentiation-induction in medium with β-NMN (Example 4); type: cell-based; settings: endodermal differentiation-inducing medium with β-NMN 0.1, 0.25 or 1 mM; 5th or 7th day; versus absence of β-NMN
Protocol: The effects of β-NMN on the induction of endodermal differentiation of iPS cells were examined. As the iPS cells, the 253G1 strain was used. The iPS cells were seeded in a 24-well plate coated with Matrigel (manufactured by Corning Incorporated) according to the manufacturer's protocol at 3×10^5 cells/well. The cells in the 24-well plate were cultured in a culture medium for iPS cells adjusted to have a final concentration of Rock inhibitor of 10 μM for 1 day. From the 1st day after seeding, the culture medium was replaced with a culture medium prepared by adjusting an endoderm differentiation-inducing culture medium of “STEMdiff Trilineage Differentiation kit” (manufactured by STEMCELL Technologies) to have a final concentration of β-NMN of 0, 0.1, 0.25, or 1 mM for 1 day. […] Then, the cells were stained with a fluorescence-labeled anti-Sox17 antibody (manufactured by Becton, Dickinson and Company, clone P7-969) and a fluorescence-labeled anti-CXCR4 antibody (manufactured by Biolegend, clone 12G5). After washing the stained cells, a flow cytometer “FACS caliber” (manufactured by Becton, Dickinson and Company) was used to analyze the fluorescence intensity of the anti-Sox17 antibody and the fluorescence intensity of the anti-CXCR4 antibody in each sample. […]

[3] = system: Human adipose tissue-derived mesenchymal stem cells; assay: qPCR of PPARγ and adiponectin genes after adipocyte differentiation-induction of mesenchymal stem cells grown with β-NMN (Example 9); type: cell-based; settings: GAPDH internal standard, 0.1 mM or 0.25 mM of β-NMN, 0 mM defined as 1, 14th day of adipocyte differentiation-induction
Text: The effects of culturing in the presence of β-NMN before adipocyte differentiation-induction of mesenchymal stern cells were examined. In the same manner as in Example 8, Human adipose tissue-derived mesenchymal stem cells (manufactured by Lonza, Cat #PT5006) were used as the mesenchymal stem cells. As a growth culture medium, a culture medium prepared by appropriately adding β-MNM to “MSCGM Bullet Kit” (manufactured by Lonza, Cat #PT3001) was used as in Example 8. As an adipocyte differentiation-inducing culture medium, a culture medium prepared by adjusting a DMEM-High Glucose medium to have a final concentration of fetal bovine serum of 10% by volume, a final concentration of IBMX of 0.5 mM, a final concentration of dexamethasone of 1 μM, a final concentration of indomethacin of 200 μM, and a final concentration of penicillin-streptomycin of 0.1% was used. The culture of the mesenchymal stem cells before differentiation-induction was performed in the same manner as in Example 8. The differentiation induction was performed in the same manner as in Example 8 except that the adipocyte differentiation-inducing culture medium was used instead of the bone differentiation-inducing culture medium. […] The relative expression level of each gene was determined from the results of qPCR of cells that were induced to differentiate into adipocytes. […]

NC(=O)c1ccc[n+]([C@@H]2O[C@H](COP(=O)([O-])O)[C@@H](O)[C@H]2O)c1 [β-NMN, β-nicotinamide mononucleotide] was tested. Which number of cells [1] did it give?
The number of cells was “larger”.

What about the “ratio of Sox17-positive CXCR4-positive cells” value [2] of the same compound?
Its value is “no clear difference”.

What about the “relative expression level of the PPARγ gene” value [3] of the same compound?
The value was “increase”.

And the “relative expression level of the adiponectin gene” value [3]?
Its value is “increase”.
